Measured values as given in patent US8216610B2, “Oral paracetamol formulations” (Imaginot Pty Ltd., priority 2004, dated 2012).
Values after ≈ are worked out from the molar mass of the structure shown. Counter-ions that a name gives are not always drawn.

Legend:
[1] = cited from earlier work
[2] = cited from earlier work; remark: listed apart in the source
Solubility in water = type: physicochemical; details: on a weight for weight basis; doses of the combination tablet

Structure (SMILES)	dependence of solubility on pH [1]	solubility in water [1]	paracetamol concentration effective for antipyresis ([2]; Rumack et al 1978)	range of paracetamol plasma concentrations for effective analgesia ([2]; humans, Prescott 1974)	volume needed for total dissolution of the dose (Solubility in water)
CC(=O)Nc1ccc(O)cc1 [paracetamol, N-acetyl-p-aminophenol]	independent of the pH	~14 mg/mL (≈ 92.6 mM)	10 to 20 µg/mL	5 to 20 µg/mL	around 27 mL
COc1cccc(C2(O)CCCCC2CN(C)C)c1 (centres unmarked) [tramadol hydrochloride]	reduced as the pH increases	around 30 mg/mL	–	–	around 1 mL
